Patent publication US8063247B2, “Bicyclic aryl and heteroaryl receptor modulators” (Prosidion Limited, priority 2007, dated 2011)

How the values were obtained:
mu-opioid receptor [1] = biological target: T1, mu-opioid receptor (Homo sapiens, UniProt P35372); test: Competition binding assay (3H-DAMGO); details: mu-opioid receptor expressing membranes, 0.5 nM 3H-DAMGO
Experimental: Competition Binding Assays
Mu-, kappa- or delta-opioid receptor expressing membranes (5-15 μg/well) were suspended in 50 mM Tris buffer pH 7.6 containing 5 mM MgCl2 and were incubated on 96-well plates with test compound or vehicle (1% DMSO) and either 0.5 nM ^3H-DAMGO, 0.8 nM ^3H-U-69,595 or 1.1 nM ^3H-DPDPE respectively in a total volume of 200 μL for 90 min at rt (22° C.). The contents of the wells were filtered and washed 5 times with chilled 50 mM Tris buffer pH 7.6 through H2O pre-soaked GF/B filters using a Perkin Elmer Filtermate. The filters were dried and upon application of scintillant the bound radioactive content for each well determined by scintillation counting in a Wallac TriLux Microbeta scintillation counter. Non-specific binding was determined in the presence of 2 μM Naloxone. IC50 values were determined by plotting log concentration test compound against specific binding and subsequent Ki values calculated.

mu-opioid receptor [2] = biological target: T1, mu-opioid receptor; test: GTPγS functional binding assay (DAMGO-stimulated); format: biochemical; details: mu-opioid receptor expressing membranes, agonist DAMGO 10 nM, 35S-GTPγS binding
Experimental: GTPγS Functional Binding Assays
Mu-, kappa- or delta-opioid receptor expressing membranes (5-20 μg/well) were suspended in 50 mM HEPES buffer pH 7.6 containing 3 mM MgCl2, 120 mM NaCl, 150 pM GTPγS, 10 μg/mL saponin and 3 μM GDP (μ-opioid receptor assay) or 5 μM GDP (κ- and δ-opioid receptor assay) and were pre-incubated on 96-well plates with test compound or vehicle (1% DMSO) in a total volume of 160 μL for 10 min at rt (22° C.). Specific agonists DAMGO (10 nM final concentration), U-50,488 (30 nM final concentration) or SNC-80 (10 nM final concentration) were added respectively and the plates pre-incubated for a further 15 min at rt (22° C.) ^35S-GTPγS at a final concentration in the assay of 150 pM was then added to provide a total volume per well of 200 μL and the plates incubated for 45 min at 30° C. The contents of the wells were filtered and washed 5 times with chilled 50 mM Tris buffer pH 7.6 through H2O pre-soaked GF/B filters using a Perkin Elmer Filtermate. The filters were dried and upon application of scintillant the bound radioactive content for each well determined by scintillation counting in a Wallac TriLux Microbeta scintillation counter. Non-specific binding was determined in the presence of 10 μM GTPγS. IC50 values were determined by plotting log concentration test compound against percentage increase over non-stimulated ^35S-GTPγS binding.

T1 sequence (P35372 whole entry, species assumed): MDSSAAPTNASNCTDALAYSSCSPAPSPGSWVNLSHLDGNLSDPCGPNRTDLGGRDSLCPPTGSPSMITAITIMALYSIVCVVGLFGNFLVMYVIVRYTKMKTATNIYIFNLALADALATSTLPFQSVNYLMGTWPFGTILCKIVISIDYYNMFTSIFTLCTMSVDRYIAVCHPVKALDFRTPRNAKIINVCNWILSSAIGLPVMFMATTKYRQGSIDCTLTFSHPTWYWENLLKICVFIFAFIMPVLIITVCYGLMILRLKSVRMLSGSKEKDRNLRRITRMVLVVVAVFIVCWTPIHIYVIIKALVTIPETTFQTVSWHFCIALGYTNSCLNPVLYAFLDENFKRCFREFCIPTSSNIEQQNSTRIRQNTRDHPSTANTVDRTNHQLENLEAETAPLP

Ki (mu-opioid receptor [1])	IC50 (mu-opioid receptor [2])	Structure (SMILES)
< 100 nM	< 100 nM	NC(=O)c1cccc(-c2ccc(CNCCC3C4CC5CC(C4)CC3C5)cn2)c1 (stereo not shown) [Example 84, 3-{5-[(2-Adamantan-2-ylethylamino)methyl]-pyridin-2-yl}benzamide]
< 100 nM	< 100 nM	Cc1cc(CNCCC2C3CC4CC(C3)CC2C4)ccc1-c1cccc(C(N)=O)c1 (stereo not shown) [Example 46, 4′-[(2-Adamantan-2-yl-ethylamino)methyl]-2′-methylbiphenyl-3-carboxylic acid amide]
